Experimental data: PubChem BioAssay AID2060510 (Molecular Pharmacology Branch, DTP, NCI, 2025)

System: 439559-082-T-J2-PDC spheroids viability
Assay: Anticancer human tumor 439559-082-T-J2-PDC patient-derived colon adenocarcinoma cell line growth inhibition [GQUAD]
Conditions: for IC50: curve of first compound; for viability, T/C: stronger effect = lower value; active = viability on the fitted dose curve at most 10% of control; inactive = the rest
Source text: DNA G-quadruplex Stabilizer Agents in Combinations in Complex Spheroids
A high-throughput screen of multi-cell type tumor spheroids was designed to identify active combinations of DNA G-quadruplex stabilizer agents and targeted small molecules. Complex spheroids include a stromal component modeled by human endothelial cells (HUVEC) and fibroblasts modeled by human mesenchymal stem cells (MSCs). The concentration ranges selected for each drug and investigational agent were based upon clinically achievable concentrations if the clinical Cmax of the agent was known.
Compounds. The drugs and investigational agents: pidnarulex (CX-5461; NSC782164), APTO-253 (NSC789042), BRACO-19 (NSC847499), peposertib (NSC802822), ceralasertib (NSC780249), elimusertib (NSC800525), camonsertib (NSC841442), AZD-1390 (NSC803789), olaparib (NSC753686), talazoparib (NSC767125), ART-558 (NSC835418), sotorasib (NSC818433), MRTX-1133 (NSC836407), SN-38 (NSC673596), topotecan (NSC609699), etoposide (NSC141540), doxorubicin (NSC123127), gemcitabine (NSC613327), 5-fluorouracil (NSC19893), paclitaxel (NSC125973), vemurafenib (NSC761431), panobinostat (NSC761190), R-306465 (JNJ-16241199; NSC773264), adavosertib (NSC754352), TP-3654 (NSC805149), carboplatin (NSC241240), KSQ-4279 (NSC840948), and staurosporine (NSC755774) were obtained from the National Cancer Institute (NCI) Developmental Therapeutics Program Chemical Repository (34). The FDA-approved anticancer drug set is available from the NCI Developmental Therapeutics Program. […] The stock solutions were prepared in dimethyl sulfoxide (DMSO, Sigma-Aldrich, St. Louis, MO, cat. D2650) at 800-fold the tested concentration and stored at -70 degrees C prior to their use. All drugs and investigational agents were tested over a range starting from a high concentration at or near the clinical Cmax and decreasing in half-log increments. If the clinical Cmax for an agent had not been determined, the highest concentration tested was 10 microM.
2.3 Cell Culture. All cells were maintained in an incubator at 37 degrees C and 5% CO2 with 95% humidity. The PDC lines were cultured according to standard operating procedures established by the NCI PDMR. All PDCs were thawed and cultured in Matrigel-coated flasks prepared with a working solution of 1X Ham's F-12 nutrient mix, without supplementation (Invitrogen, cat. 11765054), 100 U/mL penicillin-streptomycin (Invitrogen, cat. 15140122), and 2.5% Matrigel (Corning Inc., cat. 354248) for the first three passages. The 857933-349-R-J2-PDC line was cultured in 6C/Colon 1B media, which includes advanced DMEM/F-12 (Thermo Fisher Scientific, cat. 12634028), 10 mM HEPES (Thermo Fisher Scientific, cat. 15630080), 1X GlutaMAX supplement (Thermo Fisher Scientific, cat. 35050061), 0.1 mg/mL primocin (InvivoGen, cat. ant-pm-2), 10% defined fetal bovine serum, heat inactivated (HyClone Laboratories Inc., cat. SH30070.03HI), 50% L-WRN conditioned media (ATCC, cat. CRL-3276), 1.25 mM N-Acetyl-L-cysteine (Sigma-Aldrich, cat. A9165), 10 mM nicotinamide (Sigma-Aldrich, cat. N0636), 1X B-27 supplement (Thermo Fisher Scientific, cat. 17504044), 1X N-2 supplement (Thermo Fisher Scientific, cat. 17502048), 10 microM Y-27632 dihydrochloride (Tocris Bioscience, cat. 1254), and 50 ng/mL human EGF recombinant protein (Thermo Fisher Scientific, cat. PHG0311). The 485176-168-R4-J1-PDC line was cultured in Panc media, which includes all 6C/Colon 1B media components plus 100 ng/mL human FGF-10 (Thermo Fisher Scientific, cat. 100-26), 500 nM SB-431542 (Selleckchem, cat. S1067), and gastrin (Tocris, cat. 3006).
[…]

[1] = second compound 0.0316 µM, first compound 0.0316 µM
[2] = second compound 0.0316 µM, first compound 0.316 µM
[3] = second compound 0.1 µM, first compound 0.0316 µM
[4] = second compound 0.1 µM, first compound 0.316 µM
[5] = second compound 0.316 µM, first compound 0.0316 µM
[6] = second compound 0.316 µM, first compound 0.316 µM
[7] = second compound 1 µM, first compound 0.0316 µM
[8] = second compound 1 µM, first compound 0.316 µM
[9] = second compound 3.16 µM, first compound 0.0316 µM
[10] = second compound 3.16 µM, first compound 0.316 µM
[11] = second compound 10 µM, first compound 0.0316 µM
[12] = second compound 10 µM, first compound 0.316 µM
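Note: spheroids exposed to the agents for 7 days before readout.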
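Throughout, for viability, T/C: percent of luminescence signal in DMSO vehicle wells taken as 100% viability.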

CCc1c2c(nc3ccc(O)cc13)-c1cc3c(c(=O)n1C2)COC(=O)[C@]3(O)CC + Cc1cnc(CNC(=O)c2c(=O)c3ccc(N4CCCN(C)CC4)nc3n3c2sc2ccccc23)cn1
125 nM: IC50 (second compound 0.316 µM)
157 nM: IC50 (second compound 0.0316 µM)
92.4 nM: IC50 (second compound 1 µM)
67.2 nM: IC50 (second compound 10 µM)
61 nM: IC50 (second compound 3.16 µM)
122 nM: IC50 (second compound 0.1 µM)
inactive: viability, T/C (second compound 0.0316 µM, first compound 0.000999 µM) 99.4% | viability, T/C (second compound 0.0316 µM, first compound 0.00316 µM) 83.5% | viability, T/C (second compound 0.0316 µM, first compound 0.00999 µM) 78.8% | viability, T/C [1] 66.4% | viability, T/C (second compound 0.0316 µM, first compound 0.0999 µM) 53.7% | viability, T/C [2] 43.1% | viability, T/C (second compound 0.1 µM, first compound 0.000999 µM) 88.7% | viability, T/C (second compound 0.1 µM, first compound 0.00316 µM) 79.5% | viability, T/C (second compound 0.1 µM, first compound 0.00999 µM) 76.2% | viability, T/C [3] 68.1% | viability, T/C (second compound 0.1 µM, first compound 0.0999 µM) 53.4% | viability, T/C [4] 34% | viability, T/C (second compound 0.316 µM, first compound 0.000999 µM) 77.3% | viability, T/C (second compound 0.316 µM, first compound 0.00316 µM) 70.1% | viability, T/C (second compound 0.316 µM, first compound 0.00999 µM) 72.3% | viability, T/C [5] 65% | viability, T/C (second compound 0.316 µM, first compound 0.0999 µM) 55% | viability, T/C [6] 31.8% | viability, T/C (second compound 1 µM, first compound 0.000999 µM) 67.3% | viability, T/C (second compound 1 µM, first compound 0.00316 µM) 69.9% | viability, T/C (second compound 1 µM, first compound 0.00999 µM) 60.6% | viability, T/C [7] 59.4% | viability, T/C (second compound 1 µM, first compound 0.0999 µM) 50.1% | viability, T/C [8] 33.8% | viability, T/C (second compound 3.16 µM, first compound 0.000999 µM) 65.7% | viability, T/C (second compound 3.16 µM, first compound 0.00316 µM) 74.8% | viability, T/C (second compound 3.16 µM, first compound 0.00999 µM) 56.9% | viability, T/C [9] 55.7% | viability, T/C (second compound 3.16 µM, first compound 0.0999 µM) 47.6% | viability, T/C [10] 24.6% | viability, T/C (second compound 10 µM, first compound 0.000999 µM) 60.6% | viability, T/C (second compound 10 µM, first compound 0.00316 µM) 60.4% | viability, T/C (second compound 10 µM, first compound 0.00999 µM) 58.3% | viability, T/C [11] 52.8% | viability, T/C (second compound 10 µM, first compound 0.0999 µM) 48.8% | viability, T/C [12] 20.1%

COc1cc(C2c3cc4c(cc3C(OC3OC5COC(C)OC5C(O)C3O)C3COC(=O)C23)OCO4)cc(OC)c1O (centres undefined) + Cc1cnc(CNC(=O)c2c(=O)c3ccc(N4CCCN(C)CC4)nc3n3c2sc2ccccc23)cn1
inactive: viability, T/C [1] 92.8% | viability, T/C (second compound 0.0316 µM, first compound 0.1 µM) 99.9% | viability, T/C [2] 93.4% | viability, T/C (second compound 0.0316 µM, first compound 1 µM) 85.5% | viability, T/C (second compound 0.0316 µM, first compound 3.16 µM) 84.1% | viability, T/C (second compound 0.0316 µM, first compound 10 µM) 60.3% | viability, T/C [3] 86.2% | viability, T/C (second compound 0.1 µM, first compound 0.1 µM) 83.7% | viability, T/C [4] 85.1% | viability, T/C (second compound 0.1 µM, first compound 1 µM) 76.5% | viability, T/C (second compound 0.1 µM, first compound 3.16 µM) 80.5% | viability, T/C (second compound 0.1 µM, first compound 10 µM) 59.9% | viability, T/C [5] 94.4% | viability, T/C (second compound 0.316 µM, first compound 0.1 µM) 86.5% | viability, T/C [6] 81.4% | viability, T/C (second compound 0.316 µM, first compound 1 µM) 75.2% | viability, T/C (second compound 0.316 µM, first compound 3.16 µM) 70.2% | viability, T/C (second compound 0.316 µM, first compound 10 µM) 56.3% | viability, T/C [7] 74.8% | viability, T/C (second compound 1 µM, first compound 0.1 µM) 78.9% | viability, T/C [8] 70.6% | viability, T/C (second compound 1 µM, first compound 1 µM) 70% | viability, T/C (second compound 1 µM, first compound 3.16 µM) 64.8% | viability, T/C (second compound 1 µM, first compound 10 µM) 55.1% | viability, T/C [9] 63.6% | viability, T/C (second compound 3.16 µM, first compound 0.1 µM) 73.3% | viability, T/C [10] 66% | viability, T/C (second compound 3.16 µM, first compound 1 µM) 66.5% | viability, T/C (second compound 3.16 µM, first compound 3.16 µM) 66.2% | viability, T/C (second compound 3.16 µM, first compound 10 µM) 56.3% | viability, T/C [11] 72.3% | viability, T/C (second compound 10 µM, first compound 0.1 µM) 63.6% | viability, T/C [12] 62.5% | viability, T/C (second compound 10 µM, first compound 1 µM) 60.8% | viability, T/C (second compound 10 µM, first compound 3.16 µM) 59.8% | viability, T/C (second compound 10 µM, first compound 10 µM) 49.8%
> 10000 nM: IC50 (second compound 0.0316 µM) | IC50 (second compound 0.1 µM) | IC50 (second compound 0.316 µM) | IC50 (second compound 1 µM) | IC50 (second compound 3.16 µM) | IC50 (second compound 10 µM)
